#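 Assay format: 96-well plates, 48-hour exposure. Abbreviation: GI50, concentration required for 50% inhibition of growth. TGI: concentration producing complete growth inhibition.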
# What was measured:
# Assay in all cases: NCI tumour cell line growth inhibition, 48 h
# 786-0 renal = test system: 786-0 renal
# CAKI-1 renal = test system: CAKI-1 renal
# HCC-2998 colon = test system: HCC-2998 colon
# HT29 colon = test system: HT29 colon
# OVCAR-3 ovarian = test system: OVCAR-3 ovarian
# OVCAR-5 ovarian = test system: OVCAR-5 ovarian
# SNB-75 CNS = test system: SNB-75 CNS
# UACC-62 melanoma = test system: UACC-62 melanoma
# OVCAR-8 ovarian = test system: OVCAR-8 ovarian
# SK-MEL-28 melanoma = test system: SK-MEL-28 melanoma
# COLO 205 colon = test system: COLO 205 colon
compound,measurement,setting,value
O=C1c2ccccc2C(=O)c2c(Nc3ccc4c5c(cccc35)C(=O)c3ccccc3-4)cccc21,TGI,786-0 renal,> 100 µM
same,TGI,CAKI-1 renal,> 100 µM
same,TGI,HCC-2998 colon,> 100 µM
same,TGI,HT29 colon,> 100 µM
same,TGI,OVCAR-3 ovarian,> 100 µM
same,TGI,OVCAR-5 ovarian,> 100 µM
same,TGI,SNB-75 CNS,> 100 µM
same,TGI,UACC-62 melanoma,> 100 µM
O=c1ccc2nc(-c3ccccc3)nn(-c3ccccn3)c-2c1,GI50,CAKI-1 renal,1.5 µM
same,TGI,CAKI-1 renal,2.84 µM
same,GI50,HCC-2998 colon,20.9 µM
same,TGI,HCC-2998 colon,44.5 µM
same,GI50,HT29 colon,3.2 µM
same,TGI,HT29 colon,15.1 µM
same,GI50,OVCAR-3 ovarian,1.69 µM
same,TGI,OVCAR-3 ovarian,3.15 µM
same,GI50,OVCAR-5 ovarian,21.9 µM
same,TGI,OVCAR-5 ovarian,54.9 µM
same,GI50,OVCAR-8 ovarian,8.87 µM
same,TGI,OVCAR-8 ovarian,> 100 µM
same,GI50,SK-MEL-28 melanoma,12.3 µM
same,TGI,SK-MEL-28 melanoma,29.8 µM
same,GI50,SNB-75 CNS,13.2 µM
same,TGI,SNB-75 CNS,26 µM
same,GI50,UACC-62 melanoma,15 µM
same,TGI,UACC-62 melanoma,32.8 µM
N#CN=C(N)NC(=O)/C=C/C=C/c1ccc(Cl)cc1,TGI,786-0 renal,> 100 µM
same,TGI,CAKI-1 renal,> 100 µM
same,TGI,COLO 205 colon,> 100 µM
same,TGI,HT29 colon,> 100 µM
same,TGI,OVCAR-3 ovarian,> 100 µM
same,TGI,OVCAR-5 ovarian,> 100 µM
same,TGI,OVCAR-8 ovarian,> 100 µM
same,TGI,SK-MEL-28 melanoma,> 100 µM
same,TGI,SNB-75 CNS,54.8 µM
same,TGI,UACC-62 melanoma,> 100 µM
CC(C)(C)N1C(C(=O)c2ccccc2)C1c1ccccc1 (stereo not given),TGI,COLO 205 colon,> 100 µM
same,TGI,HCC-2998 colon,> 100 µM
same,TGI,HT29 colon,> 100 µM
same,TGI,OVCAR-3 ovarian,> 100 µM
same,TGI,OVCAR-8 ovarian,> 100 µM
same,TGI,SK-MEL-28 melanoma,> 100 µM
same,TGI,SNB-75 CNS,> 100 µM
same,TGI,UACC-62 melanoma,> 100 µM
CC(=O)OC(C)C1C2=C(C(=O)CC1(C)O)C(=O)c1c(ccc(-c3ccc4c(c3O)C(=O)C3=C(C4=O)C(C(C)OC(C)=O)C(C)(O)CC3=O)c1O)C2=O (stereo not given),TGI,786-0 renal,3.44 µM
same,TGI,CAKI-1 renal,6.06 µM
same,TGI,COLO 205 colon,1.92 µM
same,TGI,HCC-2998 colon,25.9 µM
same,TGI,HT29 colon,3.98 µM
same,TGI,OVCAR-3 ovarian,5.29 µM
same,TGI,OVCAR-5 ovarian,11.3 µM
same,TGI,OVCAR-8 ovarian,7.42 µM
same,TGI,SK-MEL-28 melanoma,4.7 µM
same,TGI,SNB-75 CNS,5.92 µM
same,TGI,UACC-62 melanoma,3.1 µM
N#CCCCC[N+]12CN3CN(CN(C3)C1)C2,TGI,786-0 renal,> 100 µM
same,TGI,CAKI-1 renal,> 100 µM
same,TGI,COLO 205 colon,> 100 µM
same,TGI,HCC-2998 colon,> 100 µM
same,TGI,HT29 colon,> 100 µM
same,TGI,OVCAR-3 ovarian,> 100 µM
same,TGI,OVCAR-5 ovarian,> 100 µM
same,TGI,OVCAR-8 ovarian,> 100 µM
same,TGI,SK-MEL-28 melanoma,> 100 µM
same,TGI,SNB-75 CNS,> 100 µM
same,TGI,UACC-62 melanoma,> 100 µM
CC(C)(C)OC(=O)c1cnc(Cl)cn1,TGI,786-0 renal,> 100 µM
same,TGI,CAKI-1 renal,16.6 µM
same,TGI,COLO 205 colon,> 100 µM
same,TGI,HT29 colon,> 100 µM
same,TGI,OVCAR-5 ovarian,> 100 µM
same,TGI,OVCAR-8 ovarian,> 100 µM
same,TGI,SK-MEL-28 melanoma,> 100 µM
same,TGI,SNB-75 CNS,> 100 µM
same,TGI,UACC-62 melanoma,> 100 µM
Nc1nc(N)c2c(n1)NC(=O)c1c(c3ccccc3n1Cc1ccc(Cl)cc1)C2,TGI,CAKI-1 renal,34.5 µM
same,TGI,COLO 205 colon,30.5 µM
same,TGI,HCC-2998 colon,34.4 µM
same,TGI,HT29 colon,> 100 µM
same,TGI,OVCAR-3 ovarian,56.5 µM
same,TGI,OVCAR-5 ovarian,> 100 µM
same,TGI,OVCAR-8 ovarian,96.6 µM
same,TGI,SK-MEL-28 melanoma,> 100 µM
same,TGI,SNB-75 CNS,69.2 µM
same,TGI,UACC-62 melanoma,> 100 µM
CC(C)=CCNc1ncnc2nc[nH]c12,TGI,786-0 renal,> 100 µM
same,TGI,CAKI-1 renal,> 100 µM
same,TGI,COLO 205 colon,> 100 µM
same,TGI,HT29 colon,> 100 µM
same,TGI,OVCAR-3 ovarian,> 100 µM
same,TGI,OVCAR-5 ovarian,> 100 µM
same,TGI,OVCAR-8 ovarian,> 100 µM
same,TGI,SK-MEL-28 melanoma,> 100 µM
same,TGI,SNB-75 CNS,> 100 µM
same,TGI,UACC-62 melanoma,> 100 µM
COc1ccc(C[C@H](N)C(=O)NC2C(CO)OC(n3cnc4c(N(C)C)ncnc43)C2O)cc1 (stereo not given in full),TGI,COLO 205 colon,0.302 µM
same,TGI,HCC-2998 colon,1.01 µM
same,TGI,OVCAR-5 ovarian,42.3 µM
same,TGI,OVCAR-8 ovarian,0.68 µM
same,TGI,SK-MEL-28 melanoma,0.481 µM
same,TGI,SNB-75 CNS,0.744 µM
same,TGI,UACC-62 melanoma,0.411 µM
COC(=O)Nc1nc2cc(OC)c(OC)cc2c(=O)[nH]1,TGI,786-0 renal,> 100 µM
same,TGI,CAKI-1 renal,> 100 µM
same,TGI,COLO 205 colon,> 100 µM
same,TGI,HCC-2998 colon,> 100 µM
same,TGI,HT29 colon,> 100 µM
same,TGI,OVCAR-3 ovarian,> 100 µM
same,TGI,OVCAR-5 ovarian,> 100 µM
same,TGI,OVCAR-8 ovarian,> 100 µM
same,TGI,SK-MEL-28 melanoma,> 100 µM
same,TGI,SNB-75 CNS,43.6 µM
same,TGI,UACC-62 melanoma,> 100 µM
N=C(c1ccc2ccccc2c1)c1ccccc1Cc1ccccc1,TGI,786-0 renal,> 100 µM
same,TGI,CAKI-1 renal,> 100 µM
same,TGI,COLO 205 colon,> 100 µM
same,TGI,HCC-2998 colon,> 100 µM
same,TGI,HT29 colon,> 100 µM
same,TGI,OVCAR-3 ovarian,57.3 µM
same,TGI,OVCAR-5 ovarian,> 100 µM
same,TGI,OVCAR-8 ovarian,> 100 µM
same,TGI,SK-MEL-28 melanoma,> 100 µM
same,TGI,UACC-62 melanoma,> 100 µM
CCOC(=O)C12CCC(=O)C=C1[C@@H](C)C(=O)CC2 (stereo not given in full),TGI,COLO 205 colon,> 100 µM
same,TGI,HCC-2998 colon,> 100 µM
same,TGI,HT29 colon,> 100 µM
same,TGI,OVCAR-3 ovarian,> 100 µM
same,TGI,OVCAR-5 ovarian,> 100 µM
same,TGI,OVCAR-8 ovarian,> 100 µM
same,TGI,SK-MEL-28 melanoma,> 100 µM
same,TGI,SNB-75 CNS,> 100 µM
same,TGI,UACC-62 melanoma,> 100 µM
CSc1nc(Cl)c(Br)c(Sc2nc(N)nc3nc[nH]c23)n1,TGI,786-0 renal,15.2 µM
same,TGI,CAKI-1 renal,10.2 µM
same,TGI,COLO 205 colon,33.8 µM
same,TGI,HCC-2998 colon,15.2 µM
same,TGI,HT29 colon,36.8 µM
same,TGI,OVCAR-3 ovarian,29 µM
same,TGI,OVCAR-5 ovarian,24.1 µM
same,TGI,OVCAR-8 ovarian,41.9 µM
same,TGI,SK-MEL-28 melanoma,24 µM
same,TGI,SNB-75 CNS,9.74 µM
same,TGI,UACC-62 melanoma,14.2 µM
NC(=O)C(N)=O,TGI,786-0 renal,> 100 µM
same,TGI,COLO 205 colon,> 100 µM
same,TGI,HCC-2998 colon,> 100 µM
same,TGI,OVCAR-3 ovarian,> 100 µM
same,TGI,OVCAR-5 ovarian,> 100 µM
same,TGI,OVCAR-8 ovarian,> 100 µM
same,TGI,SK-MEL-28 melanoma,> 100 µM
same,TGI,UACC-62 melanoma,> 100 µM
O=C(CSc1nc2ccccc2s1)c1sc2sc3ccccc3[n+]2c1[O-],TGI,786-0 renal,> 100 µM
same,TGI,CAKI-1 renal,> 100 µM
same,TGI,COLO 205 colon,> 100 µM
same,TGI,HT29 colon,> 100 µM
same,TGI,OVCAR-3 ovarian,> 100 µM
same,TGI,OVCAR-5 ovarian,> 100 µM
same,TGI,OVCAR-8 ovarian,> 100 µM
same,TGI,SK-MEL-28 melanoma,> 100 µM
same,TGI,UACC-62 melanoma,> 100 µM
CC(C)c1cc(CN(C)C)c(O)c(C(C)(C)C)c1,TGI,786-0 renal,32.5 µM
same,TGI,CAKI-1 renal,53.8 µM
same,TGI,COLO 205 colon,36.7 µM
same,TGI,HCC-2998 colon,29.6 µM
same,TGI,HT29 colon,> 100 µM
same,TGI,OVCAR-3 ovarian,31.2 µM
same,TGI,OVCAR-5 ovarian,> 100 µM
same,TGI,OVCAR-8 ovarian,99.6 µM
same,TGI,SK-MEL-28 melanoma,69.3 µM
same,TGI,UACC-62 melanoma,> 100 µM

# Source: PubChem BioAssay (NCI)
